From patent publication US11447505B1, “Pyrrolo[2,3-b]pyridine compounds and their use in the treatment of cancer” (priority 2017, dated 2022)

Experiments:
[1] = biological target: MRCKβ (Homo sapiens (Human), UniProt Q9Y5S2); assay: MRCKβ kinase assay (IMAP fluorescence polarization); type: biochemical; details: 1 μM ATP; read-out: MRCK-B Average Ki
Description: MRCKα, MRCKβ, ROCK1 and ROCK2 Kinase Assays

[2] = biological target: ROCK1 (Homo sapiens (Human), UniProt Q13464); details: read-out: ROCK1 Average Ki; 1 μM ATP
[3] = biological target: ROCK2 (Homo sapiens (Human), UniProt O75116); assay: ROCK2 kinase assay (IMAP fluorescence polarization); type: biochemical; details: 1 μM ATP; read-out: ROCK2 Average Ki
Chain of ROCK2 (O75116 whole entry): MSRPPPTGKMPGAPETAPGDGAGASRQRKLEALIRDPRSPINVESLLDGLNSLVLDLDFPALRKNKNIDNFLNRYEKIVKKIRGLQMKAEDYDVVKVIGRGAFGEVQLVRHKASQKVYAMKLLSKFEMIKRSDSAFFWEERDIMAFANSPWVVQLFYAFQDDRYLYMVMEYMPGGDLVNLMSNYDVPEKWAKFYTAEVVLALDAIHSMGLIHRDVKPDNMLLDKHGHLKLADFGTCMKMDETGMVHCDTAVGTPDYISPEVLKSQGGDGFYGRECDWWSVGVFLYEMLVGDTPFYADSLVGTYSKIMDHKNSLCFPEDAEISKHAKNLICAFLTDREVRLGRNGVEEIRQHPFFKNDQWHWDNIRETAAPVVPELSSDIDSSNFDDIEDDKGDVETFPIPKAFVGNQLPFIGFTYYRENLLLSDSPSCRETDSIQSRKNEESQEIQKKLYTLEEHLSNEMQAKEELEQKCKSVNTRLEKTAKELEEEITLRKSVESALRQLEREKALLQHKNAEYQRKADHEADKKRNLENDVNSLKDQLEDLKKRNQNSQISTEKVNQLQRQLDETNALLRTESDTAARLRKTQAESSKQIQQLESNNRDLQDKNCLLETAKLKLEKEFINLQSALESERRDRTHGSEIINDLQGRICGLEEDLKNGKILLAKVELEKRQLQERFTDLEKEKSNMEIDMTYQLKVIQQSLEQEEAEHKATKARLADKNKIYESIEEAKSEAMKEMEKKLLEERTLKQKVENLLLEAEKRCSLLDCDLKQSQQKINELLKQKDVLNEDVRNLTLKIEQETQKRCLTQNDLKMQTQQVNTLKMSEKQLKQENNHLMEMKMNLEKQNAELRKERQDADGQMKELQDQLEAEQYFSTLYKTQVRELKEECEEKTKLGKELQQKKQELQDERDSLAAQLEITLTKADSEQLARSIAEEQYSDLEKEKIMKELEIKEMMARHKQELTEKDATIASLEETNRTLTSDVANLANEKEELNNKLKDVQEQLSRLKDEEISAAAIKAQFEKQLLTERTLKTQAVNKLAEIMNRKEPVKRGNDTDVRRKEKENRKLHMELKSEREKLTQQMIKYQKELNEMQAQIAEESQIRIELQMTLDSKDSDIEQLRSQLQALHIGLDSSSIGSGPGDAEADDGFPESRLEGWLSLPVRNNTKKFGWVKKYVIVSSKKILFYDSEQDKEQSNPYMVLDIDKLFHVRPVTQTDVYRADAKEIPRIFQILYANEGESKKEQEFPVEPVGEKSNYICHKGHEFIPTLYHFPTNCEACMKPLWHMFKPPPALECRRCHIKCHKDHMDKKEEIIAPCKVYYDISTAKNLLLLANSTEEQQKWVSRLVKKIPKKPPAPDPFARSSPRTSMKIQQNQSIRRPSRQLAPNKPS
Description: MRCKα, MRCKβ, ROCK1 and ROCK2 assays were performed using an IMAP fluorescence polarization assay format (Molecular Devices Inc.). 8-12 nM of each kinase (Life Technologies) was incubated for 60 min at room temperature with 100 nM FAM-S6-ribosomal protein derived peptide (synthesized by Alta Biosciences, University of Birmingham UK) in the presence of 1 μM ATP and 0.5 mM MgCl2 in 20 mM Tris buffer (pH 7.4) containing 0.01% Tween-20 and 1 mM DTT (MRCKα and β); or 1 μM ATP, 10 mM MgCl2 in 20 mM Tris buffer (pH 7.5) containing 0.25 mM EGTA 0.01% Triton X-100 and 1 mM DTT (ROCK1 and ROCK2). Typically, dose response analyses were performed over concentration ranges from 0.005-100 μM. Reactions were stopped by adding 2 assay volumes of 0.25% (v/v) IMAP binding reagent in 1×IMAP binding buffer A (Molecular Devices). After 30 min incubation to allow binding reagent to bind phosphorylated peptide, fluorescence polarization was measured on a Tecan Saphire^2 plate reader at excitation (470 nm) and emission (530 nm) wavelengths.

Chain of ROCK1 (Q13464 2-1354 limits assumed): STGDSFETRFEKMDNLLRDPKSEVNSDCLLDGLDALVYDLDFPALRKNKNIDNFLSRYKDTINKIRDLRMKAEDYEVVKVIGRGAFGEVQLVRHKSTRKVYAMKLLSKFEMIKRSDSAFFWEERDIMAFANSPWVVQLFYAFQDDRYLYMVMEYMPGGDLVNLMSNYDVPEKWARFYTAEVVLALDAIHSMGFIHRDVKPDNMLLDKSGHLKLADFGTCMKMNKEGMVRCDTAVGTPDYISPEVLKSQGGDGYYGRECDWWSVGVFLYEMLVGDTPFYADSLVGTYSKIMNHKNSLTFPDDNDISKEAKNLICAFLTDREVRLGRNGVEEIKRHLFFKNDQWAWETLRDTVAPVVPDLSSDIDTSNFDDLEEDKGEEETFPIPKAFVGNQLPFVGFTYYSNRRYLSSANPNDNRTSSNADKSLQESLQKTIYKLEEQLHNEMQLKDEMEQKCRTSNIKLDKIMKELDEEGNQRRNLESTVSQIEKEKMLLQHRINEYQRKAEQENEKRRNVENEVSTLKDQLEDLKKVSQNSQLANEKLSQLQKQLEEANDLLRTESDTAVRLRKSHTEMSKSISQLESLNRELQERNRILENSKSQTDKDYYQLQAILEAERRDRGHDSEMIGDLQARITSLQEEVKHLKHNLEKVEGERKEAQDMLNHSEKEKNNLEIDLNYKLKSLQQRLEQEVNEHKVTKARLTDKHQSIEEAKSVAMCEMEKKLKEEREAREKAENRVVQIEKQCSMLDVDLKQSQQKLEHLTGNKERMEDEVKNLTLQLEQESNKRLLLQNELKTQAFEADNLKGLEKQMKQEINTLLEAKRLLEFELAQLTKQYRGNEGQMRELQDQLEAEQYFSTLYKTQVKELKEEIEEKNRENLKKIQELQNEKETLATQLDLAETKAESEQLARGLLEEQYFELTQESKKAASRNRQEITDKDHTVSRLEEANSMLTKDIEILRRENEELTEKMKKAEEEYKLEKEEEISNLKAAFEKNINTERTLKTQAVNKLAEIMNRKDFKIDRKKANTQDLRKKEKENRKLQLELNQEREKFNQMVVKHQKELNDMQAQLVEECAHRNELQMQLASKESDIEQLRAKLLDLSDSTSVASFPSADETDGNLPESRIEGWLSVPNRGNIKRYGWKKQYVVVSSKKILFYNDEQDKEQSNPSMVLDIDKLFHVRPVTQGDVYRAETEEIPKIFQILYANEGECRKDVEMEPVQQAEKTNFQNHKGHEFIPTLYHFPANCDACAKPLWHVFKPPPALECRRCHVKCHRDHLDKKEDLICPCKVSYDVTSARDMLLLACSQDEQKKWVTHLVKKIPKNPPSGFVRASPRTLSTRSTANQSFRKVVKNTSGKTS

Row | Compound | Ki [1] [nM] | Ki [2] [nM] | Ki [3] [nM]
1 | Cc1[nH]ncc1-c1c[nH]c2nccc(N3CCC[C@H](N)C3)c12 [Example E61, (3S)-1-[3-(5-methyl-1H-pyrazol-4-yl)-1H-pyrrolo[2,3-b]pyridin-4-yl]piperidin-3-amine] | 11.5 | 93.2 | 68.3
2 | CN1CC[C@H](COc2ccnc3[nH]cc(-c4cncnc4)c23)C1 [Example E225, 4-[[(3S)-1-methylpyrrolidin-3-yl]methoxy]-3-pyrimidin-5-yl-1H-pyrrolo[2,3-b]pyridine] | 11.4 | 190 | 140
3 | c1ccc(-c2c[nH]c3nccc(N4CCCCC4)c23)nc1 [Example E23, 4-(1-piperidyl)-3-(2-pyridyl)-1H-pyrrolo[2,3-b]pyridine] | 134 | 1690 | 699
4 | c1ncc(-c2c[nH]c3nccc(OC4CCNCC4)c23)cn1 [Example E223, 4-(4-piperidyloxy)-3-pyrimidin-5-yl-1H-pyrrolo[2,3-b]pyridine] | 5.84 | 153 | 108
5 | c1ncc(-c2c[nH]c3nccc(NC4CCCNC4)c23)cn1 (stereo not drawn) [Example E242] | 19.3 | 217 | 165
6 | Cn1cc(-c2c[nH]c3nccc(N4CCCCC4)c23)cn1 [Example E24, 3-(1-methylpyrazol-4-yl)-4-(1-piperidyl)-1H-pyrrolo[2,3-b]pyridine] | 37.6 | 43.5 | 20.8
7 | FC1CCN([C@H]2CCCN(c3ccnc4[nH]cc(-c5cncnc5)c34)C2)CC1 [Example E94, 4-[(3S)-3-(4-fluoro-1-piperidyl)-1-piperidyl]-3-pyrimidin-5-yl-1H-pyrrolo[2,3-b]pyridine] | 9.33 | 913 | 495
8 | c1cnnc(-c2c[nH]c3nccc(N4CCCCC4)c23)c1 [Example E15, 4-(1-piperidyl)-3-pyridazin-3-yl-1H-pyrrolo[2,3-b]pyridine] | 56.5 | 482 | 362
9 | NCCC1CCN(c2ccnc3[nH]cc(-c4cncnc4)c23)CC1 [Example E238] | 1.02 | 14.2 | 18.4
10 | CN[C@H]1CCCN(c2ccnc3[nH]cc(-c4ccc(F)cn4)c23)C1 [Example E51, (3S)-1-[3-(5-fluoro-2-pyridyl)-1H-pyrrolo[2,3-b]pyridin-4-yl]-N-methyl-piperidin-3-amine] | 7.41 | 8930 | 2190
11 | Nc1cccc(-c2c[nH]c3nccc(N4CCCCC4)c23)n1 [Example E3, 6-[4-(1-piperidyl)-1H-pyrrolo[2,3-b]pyridin-3-yl]pyridin-2-amine] | 39.9 | 28.6 | 13.8
12 | c1cncc(-c2c[nH]c3nccc(N4CCC4)c23)c1 [Example E26, 4-(azetidin-1-yl)-3-(3-pyridyl)-1H-pyrrolo[2,3-b]pyridine] | 57.6 | 545 | 263
13 | c1ncc(-c2c[nH]c3nccc(N[C@@H]4CCCNC4)c23)cn1 [Example E88, N-[(3R)-3-piperidyl]-3-pyrimidin-5-yl-1H-pyrrolo[2,3-b]pyridin-4-amine] | 7.21 | 85.2 | 70.4
14 | CN1CCN(c2ccnc3[nH]cc(C#N)c23)CC1 [Example E32, 4-(4-methylpiperazin-1-yl)-1H-pyrrolo[2,3-b]pyridine-3-carbonitrile] | 147 | 237 | 164
15 | Cn1cc(-c2c[nH]c3nccc(N4CCC[C@](N)(N5CCC(N)CC5)C4)c23)cn1 [Example E241] | 11.9 | 543 | 224
16 | CCN[C@H]1CCCN(c2ccnc3[nH]cc(-c4ccnnc4)c23)C1 [Example E71, (3S)—N-ethyl-1-(3-pyridazin-4-yl-1H-pyrrolo[2,3-b]pyridin-4-yl)piperidin-3-amine] | 0.802 | 152 | 73.9
17 | CN[C@H]1CCCN(c2ccnc3[nH]cc(-c4cnsc4)c23)C1 [Example E67, (3S)-1-(3-isothiazol-4-yl-1H-pyrrolo[2,3-b]pyridin-4-yl)-N-methyl-piperidin-3-amine] | 0.273 | 109 | 36.4
18 | COC[C@@H]1CCCN1c1ccnc2[nH]cc(C#N)c12 [Example E108, 4-[(2S)-2-(methoxymethyl)pyrrolidin-1-yl]-1H-pyrrolo[2,3-b]pyridine-3-carbonitrile] | 3.89 | 21.8 | 18.8
19 | c1cc(-c2c[nH]c3nccc(N4CCCC5(CCCCN5)C4)c23)cnn1 (stereo not drawn) [Example E172, 8-(3-pyridazin-4-yl-1H-pyrrolo[2,3-b]pyridin-4-yl)-1,8-diazaspiro[5.5]undecane] | 0.723 | 33.6 | 14.6

Row | Compound | Ki [1] [nM] | Ki [2] [nM] | Ki [3] [nM]
20 | c1cc(N2CCC2)c2c(-c3cc[nH]n3)c[nH]c2n1 [Example E28, 4-(azetidin-1-yl)-3-(1H-pyrazol-3-yl)-1H-pyrrolo[2,3-b]pyridine] | 29.4 | 14.4 | 9.8
21 | CN[C@H]1CCCN(c2ccnc3[nH]cc(-c4cnc(C)nc4)c23)C1 [Example E75, (3S)-N-methyl-1-[3-(2-methylpyrimidin-5-yl)-1H-pyrrolo[2,3-b]pyridin-4-yl]piperidin-3-amine] | 25.4 | 21700 | 6420
22 | c1ncc(-c2c[nH]c3nccc(N4CCC5(CCNC5)CC4)c23)cn1 [Example E190, 8-(3-pyrimidin-5-yl-1H-pyrrolo[2,3-b]pyridin-4-yl)-2,8-diazaspiro[4.5]decane] | 0.973 | 9.3 | 8.7
23 | c1ncc(-c2c[nH]c3nccc(OC[C@H]4CCNC4)c23)cn1 [Example E215, 3-pyrimidin-5-yl-4-[[(3S)-pyrrolidin-3-yl]methoxy]-1H-pyrrolo[2,3-b]pyridine] | 3.86 | 47.8 | 34.7
24 | CNc1cc(-c2c[nH]c3nccc(N4CCCCC4)c23)ccn1 [Example E5, N-methyl-4-[4-(1-piperidyl)-1H-pyrrolo[2,3-b]pyridin-3-yl]pyridin-2-amine] | 3.02 | 40.8 | 22.5
25 | N#Cc1c[nH]c2nccc(N3CCCC3c3ccccc3)c12 (stereo not drawn) [Example E113, 4-(2-phenylpyrrolidin-1-yl)-1H-pyrrolo[2,3-b]pyridine-3-carbonitrile] | 111 | 388 | 144
26 | N#Cc1cncc(-c2c[nH]c3nccc(N4CCCCC4)c23)c1 [Example E8, 5-[4-(1-piperidyl)-1H-pyrrolo[2,3-b]pyridin-3-yl]pyridine-3-carbonitrile] | 541 | 10000 | 3270
27 | c1ncc(-c2c[nH]c3nccc(NC4CCCCNC4)c23)cn1 (stereo not drawn) [Example E85, N-(azepan-3-yl)-3-pyrimidin-5-yl-1H-pyrrolo[2,3-b]pyridin-4-amine] | 14.1 | 421 | 460
28 | CCN1CCCC[C@]12CCCN(c1ccnc3[nH]cc(-c4cncnc4)c13)C2 [Example E208, (6R)-1-ethyl-8-(3-pyrimidin-5-yl-1H-pyrrolo[2,3-b]pyridin-4-yl)-1,8-diazaspiro[5.5]undecane] | 9.73 | 1210 | 396
29 | CN[C@H]1CCCN(c2ccnc3[nH]cc(-c4cncc(F)c4)c23)C1 [Example E50, (3S)-1-[3-(5-fluoro-3-pyridyl)-1H-pyrrolo[2,3-b]pyridin-4-yl]-N-methyl-piperidin-3-amine] | 0.729 | 2050 | 578
30 | CNCC1CCCN(c2ccnc3[nH]cc(-c4cncnc4)c23)C1 (stereo not drawn) [Example E90, N-methyl-1-[1-(3-pyrimidin-5-yl-1H-pyrrolo[2,3-b]pyridin-4-yl)-3-piperidyl]methanamine] | 6.01 | 148 | 217
31 | COCCN[C@H]1CCCN(c2ccnc3[nH]cc(-c4cncnc4)c23)C1 [Example E73, (3S)-N-(2-methoxyethyl)-1-(3-pyrimidin-5-yl-1H-pyrrolo[2,3-b]pyridin-4-yl)piperidin-3-amine] | 5.71 | 2060 | 964
32 | O[C@H]1CCCN(c2ccnc3[nH]cc(-c4cncnc4)c23)C1 [Example E101, (3S)-1-(3-pyrimidin-5-yl-1H-pyrrolo[2,3-b]pyridin-4-yl)piperidin-3-ol] | 22.5 | 567 | 363
33 | 4-morpholino-1H-pyrrolo[2,3-b]pyridine-3-carbonitrile [Example E33] | 87.1 | 196 | 127
34 | c1cc(-c2c[nH]c3nccc(N4CCCCC4)c23)cnn1 [Example E14, 4-(1-piperidyl)-3-pyridazin-4-yl-1H-pyrrolo[2,3-b]pyridine] | 9.4 | 9 | 6.5
35 | Cc1[nH]ncc1-c1c[nH]c2nccc(N3CCCCC3)c12 [Example E104, 3-(5-methyl-1H-pyrazol-4-yl)-4-(1-piperidyl)-1H-pyrrolo[2,3-b]pyridine] | 222 | 303 | 198
36 | 4-[4-(1-piperidyl)-1H-pyrrolo[2,3-b]pyridin-3-yl]pyridin-2-amine [Example E9] | 0.886 | 1.5 | 1.25
37 | Fc1cncc(-c2c[nH]c3nccc(N4CCCCC4)c23)c1 [Example E11, 3-(5-fluoro-3-pyridyl)-4-(1-piperidyl)-1H-pyrrolo[2,3-b]pyridine] | 42.3 | 755 | 374
38 | c1ncc(-c2c[nH]c3nccc(N4CC5CNCC5C4)c23)cn1 (stereo not drawn) [Example E199, 4-(2,3,3a,4,6,6a-hexahydro-1H-pyrrolo[3,4-c]pyrrol-5-yl)-3-pyrimidin-5-yl-1H-pyrrolo[2,3-b]pyridine] | 6.32 | 222 | 199
